The values below come from ChEMBL document CHEMBL1201862, “PubChem BioAssay data set” (2004).

Assay [1] addresses T1, Leucine aminopeptidase (Plasmodium falciparum 3D7, UniProt Q8IL11).
T1 sequence (Q8IL11 whole entry): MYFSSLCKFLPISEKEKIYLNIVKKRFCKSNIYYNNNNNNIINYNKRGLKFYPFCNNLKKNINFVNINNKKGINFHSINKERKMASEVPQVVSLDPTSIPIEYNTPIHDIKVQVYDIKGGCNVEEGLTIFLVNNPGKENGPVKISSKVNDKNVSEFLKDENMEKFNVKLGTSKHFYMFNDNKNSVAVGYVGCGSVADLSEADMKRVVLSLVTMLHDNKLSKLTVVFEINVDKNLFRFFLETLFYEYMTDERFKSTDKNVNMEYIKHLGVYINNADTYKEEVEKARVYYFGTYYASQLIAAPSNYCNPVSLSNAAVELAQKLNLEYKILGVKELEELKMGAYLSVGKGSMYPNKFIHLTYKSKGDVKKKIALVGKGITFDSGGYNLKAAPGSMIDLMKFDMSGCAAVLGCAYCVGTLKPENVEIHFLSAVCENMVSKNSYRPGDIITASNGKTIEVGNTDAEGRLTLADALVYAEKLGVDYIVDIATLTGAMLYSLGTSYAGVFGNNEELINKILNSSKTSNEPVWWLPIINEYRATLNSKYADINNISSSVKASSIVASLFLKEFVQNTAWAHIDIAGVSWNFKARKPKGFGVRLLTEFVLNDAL
The experiment in a line: P. falciparum M17LAP inhibitors, primary screen, biochemical, fluorogenic H-Leu-NHMec substrate, 1536-well (AID 1619). The format is functional.

Assay [2] concerns the target FAD-linked sulfhydryl oxidase ALR (Homo sapiens, UniProt P55789). The experiment in a line: ALR-catalysed DTT oxidation blockers – biochemical, H2O2 detection, luminescence, cherry-pick, dose response (AID 493248).
Assay [3] addresses Large T antigen (Simian virus 40, UniProt P03070). It is filed as functional, Betapolyomavirus macacae.
Assay [4] addresses T2, Heat shock factor protein 1 (Mus musculus, UniProt P38532).
T2 sequence (P38532 whole entry): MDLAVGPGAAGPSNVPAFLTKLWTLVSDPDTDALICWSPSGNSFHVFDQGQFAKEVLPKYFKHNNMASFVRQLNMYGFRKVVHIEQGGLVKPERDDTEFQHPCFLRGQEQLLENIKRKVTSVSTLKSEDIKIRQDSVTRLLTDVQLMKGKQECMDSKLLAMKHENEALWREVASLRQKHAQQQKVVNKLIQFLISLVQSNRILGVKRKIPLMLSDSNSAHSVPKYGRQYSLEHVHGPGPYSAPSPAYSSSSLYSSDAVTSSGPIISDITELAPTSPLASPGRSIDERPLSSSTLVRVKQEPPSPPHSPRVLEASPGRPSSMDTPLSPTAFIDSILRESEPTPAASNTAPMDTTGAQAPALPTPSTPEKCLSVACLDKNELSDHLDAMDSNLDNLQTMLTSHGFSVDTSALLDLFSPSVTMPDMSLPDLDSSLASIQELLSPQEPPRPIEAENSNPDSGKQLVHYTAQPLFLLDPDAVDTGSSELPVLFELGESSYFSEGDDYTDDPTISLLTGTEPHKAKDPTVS
The experiment in a line: decrease of HSF1-responsive luciferase luminescence – cell-based, NIH3T3, dose retest, confirmation (AID 2382).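 Note: NIH3T3 fibroblasts with HSF1-driven luciferase reporter stressed by proteasome inhibitor MG132; luminescence from HSF1-driven luciferase expression after 8 hours of MG132 stress.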 It is filed as functional.

Assay [5] concerns the target T3, Rac GTPase-activating protein 1 (Homo sapiens, UniProt Q9H0H5).
T3 sequence (Q9H0H5 whole entry): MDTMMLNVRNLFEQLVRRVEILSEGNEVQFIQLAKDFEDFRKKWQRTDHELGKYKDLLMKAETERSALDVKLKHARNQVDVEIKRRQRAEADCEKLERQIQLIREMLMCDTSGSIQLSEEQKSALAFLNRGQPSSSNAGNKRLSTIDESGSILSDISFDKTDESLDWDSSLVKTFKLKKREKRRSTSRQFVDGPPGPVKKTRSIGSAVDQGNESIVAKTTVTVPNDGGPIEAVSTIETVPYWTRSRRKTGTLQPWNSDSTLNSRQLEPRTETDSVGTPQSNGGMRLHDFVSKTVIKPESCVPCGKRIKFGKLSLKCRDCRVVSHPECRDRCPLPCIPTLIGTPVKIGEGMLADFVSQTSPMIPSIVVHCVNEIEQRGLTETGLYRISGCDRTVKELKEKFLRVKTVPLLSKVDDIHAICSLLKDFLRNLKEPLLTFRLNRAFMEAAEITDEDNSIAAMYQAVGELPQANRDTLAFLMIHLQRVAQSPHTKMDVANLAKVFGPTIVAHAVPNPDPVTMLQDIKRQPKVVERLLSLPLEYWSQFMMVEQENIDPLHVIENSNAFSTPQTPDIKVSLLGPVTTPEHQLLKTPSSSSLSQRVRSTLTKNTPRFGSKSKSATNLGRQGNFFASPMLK
The experiment in a line: blockers of MgcRacGAP-driven Rac1 GTP hydrolysis – biochemical, ADP Hunter fluorescence, primary and confirmatory, confirmation (AID 624330). It is filed as functional.

The nature of assay [6]: P. falciparum Dd2 growth inhibitors, dose response, SYBR Green, cherry-picked samples (AID 1159567). The format is functional, cell-based.
The nature of assay [7]: non-specific 3'UTR reporter inhibition in Clone20-Shn3RL – cell-based, Renilla luciferase, cherry-picked, counter-screen for Shn3 inhibitor project, dose response (AID 624133). The format is functional.
Assay [8] in a line: reduction of Shn3 3'UTR-driven luciferase in osteoblasts – cell-based, Clone20 osteoblasts, firefly luciferase, cherry-picked, dose response (AID 624132).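 Note: firefly luciferase luminescence from reporter carrying the Shn3 3'UTR in osteoblasts.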 It is filed as functional.
Assay [9] addresses T4, Protein RecA (Mycobacterium tuberculosis, UniProt P9WHJ3).
T4 sequence (P9WHJ3 whole entry): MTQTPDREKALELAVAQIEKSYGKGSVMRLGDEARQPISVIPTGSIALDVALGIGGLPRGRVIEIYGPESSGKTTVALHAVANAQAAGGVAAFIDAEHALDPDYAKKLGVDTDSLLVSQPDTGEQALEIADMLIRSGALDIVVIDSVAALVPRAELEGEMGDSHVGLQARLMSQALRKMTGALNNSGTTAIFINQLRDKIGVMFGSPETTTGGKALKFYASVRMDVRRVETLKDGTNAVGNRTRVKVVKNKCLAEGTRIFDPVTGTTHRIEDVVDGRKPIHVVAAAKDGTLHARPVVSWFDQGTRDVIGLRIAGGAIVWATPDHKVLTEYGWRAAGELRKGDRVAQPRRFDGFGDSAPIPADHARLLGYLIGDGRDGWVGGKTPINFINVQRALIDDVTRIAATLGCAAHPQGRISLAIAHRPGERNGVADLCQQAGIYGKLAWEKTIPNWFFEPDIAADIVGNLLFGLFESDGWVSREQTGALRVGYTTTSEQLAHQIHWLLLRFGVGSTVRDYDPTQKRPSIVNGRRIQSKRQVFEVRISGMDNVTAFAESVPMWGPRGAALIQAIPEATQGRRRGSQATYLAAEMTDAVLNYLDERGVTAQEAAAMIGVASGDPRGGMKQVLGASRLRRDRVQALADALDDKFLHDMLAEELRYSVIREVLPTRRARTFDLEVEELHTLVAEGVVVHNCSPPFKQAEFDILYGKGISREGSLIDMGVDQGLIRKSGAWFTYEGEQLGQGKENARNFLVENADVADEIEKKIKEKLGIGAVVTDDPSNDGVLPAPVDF
As to the kind of experiment: Fluorescence Cell-Free Homogeneous Dose Retest to Identify Inhibitors of RecA-Intein Splicing Activity. [Related pubchem assays (depositor defined):AID2097, AID2223, AID489010, AID492950]. The format is functional.

Assay [10] has as its target T5, Fatty acid synthase (Homo sapiens, UniProt P49327). As to the kind of experiment: inhibition of human FAS-TE enzyme activity – biochemical, kinetic fluorescence intensity, dose response (AID 624326).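 Note: rate of fluorescence rise from hydrolysis of a fluorogenic O-methyl fluorescein ester substrate.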 It is filed as functional.
The target of assay [11] is T5, Fatty acid synthase. The experiment in a line: inhibition of human FAS-TE enzyme activity – biochemical, endpoint fluorescence intensity, uHTS hits, dose response (AID 624327).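 Note: fluorescence from hydrolysis of an O-methyl fluorescein acyl ester substrate by the enzyme.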 It is filed as functional.

Calls of active or inactive are those of the source. Some results are limits rather than exact numbers.

What is called IC50 is the midpoint of a concentration-inhibition curve. Broadly, the AC50 is the concentration giving half of the maximal activity seen. A word on the EC50: it is the concentration at which the effect is half-maximal.

T5 sequence (P49327 whole entry): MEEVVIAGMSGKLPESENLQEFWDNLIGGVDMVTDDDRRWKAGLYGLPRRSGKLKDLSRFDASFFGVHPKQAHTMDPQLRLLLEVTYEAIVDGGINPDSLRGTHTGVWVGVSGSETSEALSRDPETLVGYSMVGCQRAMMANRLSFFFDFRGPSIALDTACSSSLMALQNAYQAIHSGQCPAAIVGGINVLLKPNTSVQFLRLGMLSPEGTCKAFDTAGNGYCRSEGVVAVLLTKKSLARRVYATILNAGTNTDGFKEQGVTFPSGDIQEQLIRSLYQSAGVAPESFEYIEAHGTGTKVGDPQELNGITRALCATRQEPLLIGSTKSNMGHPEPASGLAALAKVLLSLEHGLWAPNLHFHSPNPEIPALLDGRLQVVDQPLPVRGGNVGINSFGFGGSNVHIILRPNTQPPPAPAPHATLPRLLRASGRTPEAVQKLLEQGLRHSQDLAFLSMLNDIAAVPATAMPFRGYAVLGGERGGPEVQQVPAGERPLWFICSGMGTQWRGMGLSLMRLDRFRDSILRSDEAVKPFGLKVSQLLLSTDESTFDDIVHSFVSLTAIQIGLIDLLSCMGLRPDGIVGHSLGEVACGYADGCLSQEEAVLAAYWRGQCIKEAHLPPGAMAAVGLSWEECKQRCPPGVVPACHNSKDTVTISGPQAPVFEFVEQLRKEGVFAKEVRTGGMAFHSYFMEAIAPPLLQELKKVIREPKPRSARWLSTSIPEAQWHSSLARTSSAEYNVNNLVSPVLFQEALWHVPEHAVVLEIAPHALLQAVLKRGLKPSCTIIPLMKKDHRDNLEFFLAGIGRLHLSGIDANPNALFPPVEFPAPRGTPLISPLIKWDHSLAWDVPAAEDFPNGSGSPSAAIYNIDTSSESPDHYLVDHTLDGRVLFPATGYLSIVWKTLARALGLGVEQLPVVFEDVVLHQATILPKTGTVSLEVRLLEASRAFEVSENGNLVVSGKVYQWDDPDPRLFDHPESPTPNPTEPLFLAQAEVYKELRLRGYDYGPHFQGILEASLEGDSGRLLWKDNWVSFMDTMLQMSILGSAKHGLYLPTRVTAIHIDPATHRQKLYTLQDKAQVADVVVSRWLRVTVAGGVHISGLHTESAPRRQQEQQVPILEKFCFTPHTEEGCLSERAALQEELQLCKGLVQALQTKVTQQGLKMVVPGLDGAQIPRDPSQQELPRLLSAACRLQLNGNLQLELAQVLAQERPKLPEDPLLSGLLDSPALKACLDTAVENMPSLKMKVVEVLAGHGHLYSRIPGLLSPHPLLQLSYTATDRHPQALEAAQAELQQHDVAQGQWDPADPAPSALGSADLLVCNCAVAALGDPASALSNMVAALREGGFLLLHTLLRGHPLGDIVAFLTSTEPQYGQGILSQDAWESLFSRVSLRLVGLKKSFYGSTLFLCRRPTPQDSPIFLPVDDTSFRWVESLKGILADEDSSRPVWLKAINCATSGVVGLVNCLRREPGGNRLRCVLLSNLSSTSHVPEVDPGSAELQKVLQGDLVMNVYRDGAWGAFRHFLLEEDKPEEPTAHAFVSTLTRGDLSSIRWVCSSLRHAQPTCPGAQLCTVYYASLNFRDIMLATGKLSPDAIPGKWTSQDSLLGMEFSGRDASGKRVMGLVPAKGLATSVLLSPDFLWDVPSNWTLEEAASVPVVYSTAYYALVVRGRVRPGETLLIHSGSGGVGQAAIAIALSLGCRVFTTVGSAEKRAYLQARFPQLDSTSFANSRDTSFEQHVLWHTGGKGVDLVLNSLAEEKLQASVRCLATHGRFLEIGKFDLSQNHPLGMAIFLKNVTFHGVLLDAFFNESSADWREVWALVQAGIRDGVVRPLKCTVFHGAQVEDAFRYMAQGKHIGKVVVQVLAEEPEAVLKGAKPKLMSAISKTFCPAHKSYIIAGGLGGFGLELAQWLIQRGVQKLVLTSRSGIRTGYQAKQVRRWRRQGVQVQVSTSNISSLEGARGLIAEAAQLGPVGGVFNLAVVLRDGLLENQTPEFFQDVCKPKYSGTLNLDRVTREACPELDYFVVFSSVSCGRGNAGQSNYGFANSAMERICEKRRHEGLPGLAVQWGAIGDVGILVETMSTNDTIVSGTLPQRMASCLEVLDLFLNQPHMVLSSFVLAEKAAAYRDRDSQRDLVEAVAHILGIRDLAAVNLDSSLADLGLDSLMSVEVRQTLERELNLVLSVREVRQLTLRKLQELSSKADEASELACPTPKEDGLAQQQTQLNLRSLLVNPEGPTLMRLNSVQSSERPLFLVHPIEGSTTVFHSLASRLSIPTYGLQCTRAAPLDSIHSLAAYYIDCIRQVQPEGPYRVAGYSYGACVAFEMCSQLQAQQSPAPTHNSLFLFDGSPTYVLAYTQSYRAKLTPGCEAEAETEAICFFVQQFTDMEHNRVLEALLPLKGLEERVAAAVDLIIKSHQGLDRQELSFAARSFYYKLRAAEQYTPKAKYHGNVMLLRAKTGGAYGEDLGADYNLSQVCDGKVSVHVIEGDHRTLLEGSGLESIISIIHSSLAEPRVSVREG
Large T antigen, sequence (P03070 whole entry): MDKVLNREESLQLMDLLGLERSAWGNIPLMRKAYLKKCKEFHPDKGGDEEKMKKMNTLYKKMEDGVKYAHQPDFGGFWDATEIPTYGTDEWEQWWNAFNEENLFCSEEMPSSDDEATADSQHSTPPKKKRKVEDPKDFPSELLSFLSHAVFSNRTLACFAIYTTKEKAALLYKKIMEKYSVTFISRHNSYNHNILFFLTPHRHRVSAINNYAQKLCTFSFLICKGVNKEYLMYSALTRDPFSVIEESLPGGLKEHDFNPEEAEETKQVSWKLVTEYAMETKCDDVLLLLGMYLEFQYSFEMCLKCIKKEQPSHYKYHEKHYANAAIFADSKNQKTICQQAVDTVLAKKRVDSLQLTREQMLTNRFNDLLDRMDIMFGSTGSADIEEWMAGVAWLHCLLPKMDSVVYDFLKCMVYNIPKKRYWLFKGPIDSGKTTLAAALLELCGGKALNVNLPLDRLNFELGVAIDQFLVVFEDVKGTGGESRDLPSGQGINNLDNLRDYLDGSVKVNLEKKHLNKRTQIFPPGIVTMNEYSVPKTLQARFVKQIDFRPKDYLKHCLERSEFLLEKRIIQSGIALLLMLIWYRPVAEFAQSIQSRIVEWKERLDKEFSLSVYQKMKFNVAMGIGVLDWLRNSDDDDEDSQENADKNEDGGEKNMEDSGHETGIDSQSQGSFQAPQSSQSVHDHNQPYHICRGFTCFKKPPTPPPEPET
FAD-linked sulfhydryl oxidase ALR, sequence (P55789 whole entry): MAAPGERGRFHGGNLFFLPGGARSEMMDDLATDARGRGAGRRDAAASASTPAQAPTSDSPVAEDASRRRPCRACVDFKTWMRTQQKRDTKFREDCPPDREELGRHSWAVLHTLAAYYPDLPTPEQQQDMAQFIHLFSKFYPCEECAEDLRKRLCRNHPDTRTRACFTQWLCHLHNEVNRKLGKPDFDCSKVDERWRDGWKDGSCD

On to `Nc1[nH]nc2nc(N3CCOCC3)nc(-c3ccccc3)c12`, for which the IC50 in [1] is 6.77 µM (active).
With `CCN1C(=O)CC(N2CCC(Nc3ccc(OC)cc3)CC2)C1=O` (centres undefined), in assay [2], the AC50 is 2.09 µM (active). In [3], the IC50 is 57.7 µM (active).
Regarding `COc1ccc(N2C(=O)c3ccccc3NC2c2ccc(OC)c(Cn3cc([N+](=O)[O-])cn3)c2)cc1` (centres undefined), the EC50 in [4] is reported as > 195 µM (not active).
Take `COc1cc2c(cc1N=C(S)Nc1ccccc1C)oc1ccccc12`: the IC50 is 83.9 µM (active) in [5] and 56.4 µM (active) in assay [3].
On to `CCC(=O)N1[C@H](CO)[C@H](c2ccc(C3=CCCCC3)cc2)[C@H]1CNCC1CCC1`, for which the AC50 in assay [6] was 3.46 µM (active).
With `CN(C)S(=O)(=O)c1cccc(/N=c2\scc(-c3ccc4c(c3)NC(=O)CO4)n2CC2CCCO2)c1` (centres undefined), the AC50 in assay [7] was 22.5 µM (active); in [8], 14 µM (active).
`Cc1nc2cc(N=NN(C)C)ccc2[nH]1`: in [3], the IC50 is > 100 µM (active).
For the compound `O=C(Cn1cnc2ccccc2c1=O)Nc1ccc2c(c1)CCC2`, the IC50 in [1] was 5.23 µM (active).
With `O=C(Nc1ccc(Nc2ccccc2)cc1)N1CCOCC1`, the IC50 in assay [3] is 7.43 µM (active).
Take `CC(C)[C@H](NC(=O)Nc1ccc(Oc2ccccc2)cc1)C(=O)O`: the IC50 in assay [1] was 15.7 µM (active). In addition, the EC50 in assay [9] is > 380 µM (inactive).
Consider `COc1ccc(S(=O)(=O)N2CCCCCC2)cc1C(=O)OCC(=O)NC(C)(C)C`, for which the EC50 in assay [4] is > 195 µM (not active).
Still for that read-out and setting: as for `Cc1ccc(OCC(=O)NCCNC(=O)c2ccco2)cc1C`, the figure is > 195 µM (not active).
For `O=C(Nc1nc(=O)n(C(=O)C2CC2)s1)c1ccccc1`, the IC50 in assay [1] is 40.7 µM (active).
Consider `CO[C@H]1CN(C)C(=O)c2ccc(NC(=O)Nc3ccc(C(F)(F)F)cc3)cc2OC[C@@H](C)NC[C@@H]1C`, for which the AC50 in assay [6] is 9.45 µM (active).
Regarding `O=C(Nn1c(C2CCCCC2)nc2ccccc2c1=O)c1ccc([N+](=O)[O-])cc1Cl`, the IC50 in assay [10] was 18.9 µM (active); in [11], 19.3 µM (active).
For the compound `Cc1cc(-c2ccc(N=Nc3c(S(=O)(=O)O)cc4cc(S(=O)(=O)O)cc(N)c4c3O)c(C)c2)ccc1N=Nc1c(S(=O)(=O)O)cc2cc(S(=O)(=O)O)cc(N)c2c1O`, the IC50 in [3] was 2.38 µM (active).
With `CCOc1ccc(CC(=O)N2CCC3(CC2)NCCc2[nH]cnc23)cc1`, the EC50 in [4] is listed as > 195 µM (not active).
Take `O=C1CN(C(=O)c2cc([N+](=O)[O-])ccc2Cl)C(c2ccccc2)c2cc(F)ccc2N1` (centres undefined): the IC50 in [10] is 1.99 µM (active); in [11] it was 1.36 µM (active).
For the compound `COC(=O)CC(NC(=O)Nc1ccc(C)cc1)c1cccc([N+](=O)[O-])c1` (centres undefined), the IC50 was 8.7 µM (active) in assay [10] and 11.5 µM (active) in assay [11].
As for `CCCC(=O)N1CC2(C1)CN(Cc1ccc(Cl)cc1)[C@@H](CO)c1[nH]c3cc(OC)ccc3c12`, the AC50 in assay [6] was 5.26 µM (active).
With `Cc1ccc(C(=O)NCC(=O)NCC(=O)OCC(=O)c2ccc(F)cc2)cc1`, the EC50 in assay [4] is listed as > 195 µM (not active).
With `CO[C@H]1CN(C)C(=O)c2cc(NC(=O)c3cc(C)on3)ccc2OC[C@H](C)N(C(=O)C2CC2)C[C@H]1C`, in [6], the AC50 was 4.96 µM (active).
Regarding `Cc1ncc([N+](=O)[O-])n1CC(=O)Nc1ccc(F)cc1`, in assay [4], the EC50 is 12.3 µM (active).
Still for that read-out and setting: with `Cc1oc(-c2cc3c(cc2Cl)OCO3)nc1CN1CCCC1c1ccc(F)cc1` (centres undefined) the figure was > 195 µM (not active).
Consider `O=C(O)CC12CC3CC(C1)CC(n1ncc(NCc4ccc5c(c4)OCO5)c(Cl)c1=O)(C3)C2`, for which the IC50 in [1] was 40.6 µM (active).
`O=C1CS/C(=C\S(=O)(=O)c2ccc(Cl)cc2)N1`: the IC50 in assay [1] is 40 µM (active).
For the compound `CSc1ccc(Cl)c(C(=O)OCC(=O)NCc2ccco2)c1`, in assay [1], the IC50 was 49.9 µM (active).
